# Read-outs that look alike come from different tables or passages of the source.
# Key:
# [1] = system: naïve CD4+ T cells (Th17 differentiation, IL-17a); assay: In vitro Th17 differentiation, IL-17a staining by flow cytometry; assay type: cell-based, mouse; conditions: for Th17 cell differentiation (IL-17a): bile acids 20 μM, 3 days, IL-6 and TGF-β
# Text: (§1) Our screen included both primary bile acids, synthesized by the host, and secondary bile acids, produced by bacterial modification of primary bile acids (FIG. 5). Naïve CD4^+ T cells were isolated from wild-type C57BL/6J (B6) mice and cultured with bile acids under Th17 differentiation conditions and, as a counter-screen, Treg differentiation conditions (FIG. 6).
# (§2) In Vitro T Cell Culture. Naïve CD4^+ (CD62L^+ CD44^− CD25^− CD4^+) T cells were isolated from the spleens and the lymph nodes of mice of designated genotypes with FACS sorting. For certain experiments, naïve CD4^+ T cells were enriched using naïve CD4^+ T cell isolation kits (Miltenyi). Naïve CD4^+ T cells (40,000 cells) were cultured in a 96-well plate pre-coated with hamster IgG (MP Biomedicals) in T cell medium (RPMI, 10% fetal bovine serum, 25 mM glutamine, 55 μM 2-mercaptoethanol, 100 U/mL penicillin, […] streptomycin) supplemented with 0.25 μg/mL anti-CD3 (clone 145-2C11) and 1 μg/mL anti-CD28 (clone 37.51). For Th0 culture, T cells were cultured with the addition of 100 U/mL of IL-2 (PEPROTECH). For Th1 cell differentiation, T cells were cultured with the addition of 100 U/mL of IL-2, 10 μg/mL of anti-IL-4 (clone 11B11) and 10 ng/mL of IL-12 (PEPROTECH). For Th2 cell differentiation, T cells were cultured with the addition of 10 μg/mL of anti-IFNγ (clone XMG1.2) and 10 ng/mL of IL-4 (R&D Systems). For Th17 cell differentiation, T cells were cultured with the addition of 10 ng/mL of IL-6 (eBioscience) and 0.5 ng/mL of TGF-β (PEPROTECH). For Treg culture, T cells were cultured with the addition of 100 U/mL of IL-2 and various concentrations of TGF-β. […] Bile acids, retinoic acid (Sigma) or mitoQ (Focus Biomolecules), or mitoPQ (Sigma) were added either at 0 or 16 h time points. Compounds with low water solubility were sonicated before adding to the culture. Cells were harvested and assayed by flow cytometry on day 3. For ROS and mitochondrial membrane potential detection, cells cultured for 2 days were incubated with 5 μM of mitoSOX (ThermoFisher), 10 μM of DCFDA (Sigma) or 2 μM of JC-1 (ThermoFisher) for 30 min and assayed with flow cytometry.
# (§3) Flow Cytometry. Cells harvested from in vitro culture or in vivo mice experiments were stimulated with 50 ng/mL PMA (Phorbol 12-myristate 13-acetate, Sigma) and 1 μM ionomycin (Sigma) in the presence of GolgiPlug (BD) for 4 h to determine cytokine expression. After stimulation, cells were stained with cell surface marker antibodies and LIVE/DEAD Fixable dye, Aqua, to exclude dead cells, fixed and permeabilized with a FoxP3/Transcription factor staining kit (eBioscience), followed by staining with cytokine- and/or transcription factor-specific antibodies. All flow cytometry analyses were performed on an LSR II flow cytometer (BD) and data were analyzed with FlowJo software (TreeStar).
# [2] = biological target: T1, recombinant human RORγt ligand-binding domain (LBD) (Homo sapiens, UniProt P51449); assay: Microscale thermophoresis assay; conditions: MST
# T1 sequence (P51449 269-508 limits assumed): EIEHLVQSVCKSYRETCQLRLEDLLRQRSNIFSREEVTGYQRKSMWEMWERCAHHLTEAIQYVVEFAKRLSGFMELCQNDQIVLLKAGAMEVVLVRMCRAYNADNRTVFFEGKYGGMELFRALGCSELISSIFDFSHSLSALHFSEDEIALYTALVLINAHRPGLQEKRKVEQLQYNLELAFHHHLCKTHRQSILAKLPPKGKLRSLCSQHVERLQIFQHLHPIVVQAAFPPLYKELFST
# Description: (§4) We next examined if 3-oxoLCA physically interacts with the RORγt protein in vitro. A microscale thermophoresis (MST) assay was performed with recombinant human RORγt ligand-binding domain (LBD). […] Next, we examined if 3-oxoLCA modulates the transcriptional activity of RORγt. We assayed the effect of the bile acids on firefly luciferase expression directed by a fusion protein of RORγt and Gal4-DBD (DNA-binding domain) in human embryonic kidney (HEK) 293 cells^14.
# Microscale Thermophoresis Assay. The binding affinity of the compounds with RORγ ligand-binding domain (LBD) was analyzed by microscale thermophoresis (MST). Purified RORγ-LBD was labeled with the Monolith NT™ Protein Labeling Kit RED (NanoTemper Technologies). Serially-diluted compounds, with concentrations of 1 mM to 20 nM, were mixed with 55 nM labeled RORγ-LBD at room temperature and loaded into Monolith™ standard-treated capillaries. Binding was measured by monitoring the thermophoresis with 20% LED power and ‘Medium’ MST power on a Monolith NT.115 instrument (Nano Temper Technologies) with the following time setting: 5s Fluo, Before; 20s MST On; and 5s Fluo, After. Kd values were fitted using the NT Analysis software (Nano Temper Technologies).
# [3] = cited from earlier work
# [4] = Measurement of lipophilicity (octanol/ammonium bicarbonate partitioning, LC-MS); conditions: n-octanol / 50 mM ammonium bicarbonate, pH 8
# Description: (§5) Measurement of lipophilicity. Partitioning Method: 2 μL of 10 mM stock solutions of each target compound was added to a 1 mL each of 50 mM ammonium bicarbonate (pH=8), and 1 mL of n-octanol in an Eppendorf tube. The resulting two-phase mixture was vortexed and then shaken for 18 h at 20° C. The two phases were then carefully separated into the aqueous sample (bottom layer), and organic sample (top-layer) and placed separately in autosampler vials and analyzed by LC-MS/MS. LC-MS Method: a Thermo q-Exactive Plus LC-MS equipped with an Ultimate 3000 HPLC was operated in negative ion mode after optimized to detect the [M− H]^− of the bile acids. […] A Dikma Inspire C8 column (3 μm particle size, 100 mm length, 4.6 mm ID) was used for analysis. Each injection was 5 μL, and a constant flow rate of 0.400 L/min was used. The gradient started at 0% B and was held constant for 2 minutes. Then the mobile phase composition was linearly changed to 100% B over 8 minutes and held at 100% for the following 5 minutes. The mobile phase composition was changed to 0% B over the following 0.1 minutes and the system was allowed to equilibrate to starting conditions over 1.9 minutes. Standards of all targets were used to establish retention times. Better than 2 ppm mass accuracy was obtained on all measurements. The LC-MS analysis was done in triplicate, while the partitioning was done once for each target's [M− H]^− ion. Calculation of log D: the total response of target in octanol was divided by the total response in the aqueous phase to get a partitioning coefficient. Then, log base 10 was taken and reported.
# CD4+ T cells = conditions: for cell viability: 3-day culture
# Text: Representative FACS plots of CD4^+ T cells cultured for 3 days and stained intracellularly for FoxP3 (e). Quantification of FoxP3^+ and viable T cells after 3-day culture (f) (n=2/group). n, number of biologically independent samples. Data are representative of two independent experiments (b, d). Data in (c) are shown as the mean±standard deviation.
# Naïve CD4^+ T cells were isolated from FoxP3-IRES-GFP mice. d, Flow cytometry of CD4^+ T cells stained intracellularly for FoxP3. Naïve CD4^+ T cells isolated from WT, CNS1, CNS2 or CNS3 knockout mice (n=3/group) were cultured with anti-CD3/28 and IL-2, LCA (20 μM), TGF-β (0.05 ng/ml) and additional retinoic acid (RA; 1 ng/ml). e and f, Flow cytometry (e) and its quantification (f) of CD4^+ T cells stained intracellularly for FoxP3. […] Data are representative of two independent experiments (c, d). Data are shown as the mean±standard deviation by unpaired t-test with 2-tailed p-value.
# as §3
# physchem = conditions: pH 8
# Description: as §5
# [5] = system: fusion protein of RORγt and Gal4-DBD; assay: RORγt luciferase reporter assay in HEK293 cells; assay type: cell-based, human; conditions: ML209 2 μM, bile acids 10 μM
# Description: Data are shown as the mean±standard deviation by unpaired t-test with 2-tailed p-value.
# as §4
# [6] = system: naïve CD4+ T cells (Treg differentiation, FoxP3); assay: In vitro Treg differentiation, FoxP3 staining by flow cytometry; assay type: cell-based, mouse; conditions: for FoxP3 expression / Treg differentiation in cells lacking CNS3: CNS3 knockout cells
# Text: To determine if bile acids influence T cell functions, the present inventors performed a small-scale screening assay with a small molecule library comprising secondary bile acids with in vitro Treg differentiation as a read-out. Naïve CD4^+ T lymphocytes were sorted from wild-type B6 mice and cultured in the presence of a TCR stimulus, interleukin 2 (IL-2), and different amounts of TGFβ (optimized for Treg differentiation). Treg differentiation was quantified at the single cell level by staining with an antibody specific for FoxP3, followed by flow cytometry analysis. Retinoic acid, a known enhancer of Treg differentiation, was used as a positive control.
# as §1, §2, §3
# T cells = assay: ROS, mitochondrial mass and membrane potential (mitoSOX, DCFDA, MitoTracker, JC-1); assay type: cell-based, mouse; conditions: 48 h
# Description: Chromatin obtained from DMSO- and isoalloLCA-treated WT cells was immunoprecipitated with IgG, anti-H3K27Ac, anti-P300, or anti-H3K4me1 antibodies, followed by real-time PCR analysis (n=3/group). Primers targeting FoxP3 promoter (Pro), CNS1, CNS2 and CNS3 region and hsp90 promoter were used for qPCR quantification. Relative enrichment was calculated as fold change relative to the ChIP signal at the FoxP3 promoter of the DMSO-treated control. d and e, Flow cytometry and quantification of CD4^+ T cells stained intracellularly for FoxP3. […] Their mitochondrial and cytoplasmic ROS were measured by mitoSOX (h) and 2′,7′-dichlorofluorescein diacetate (DCFDA) (i), respectively. Total mitochondria mass was measured by MitoTracker (j) and the mitochondrial membrane potential measured by JC-1 dye (k). MFIs of different treatments were normalized as fold changes to those of DMSO control (n=3/group).
# In Vitro T Cell Culture. Naïve CD4^+ (CD62L^+ CD44^− CD25^− CD4^+) T cells were isolated from the spleens and the lymph nodes of mice of designated genotypes with FACS sorting. For certain experiments, naïve CD4^+ T cells were enriched using naïve CD4^+ T cell isolation kits (Miltenyi). […]
compound,measurement,setting,value
"C[C@H](CCC(=O)O)[C@H]1CC[C@H]2[C@@H]3[C@H](O)C[C@@H]4CC(=O)CC[C@]4(C)[C@H]3C[C@H](O)[C@]12C [3-oxoCA, 3-oxocholic acid, reference compound]",Th17 cell differentiation (IL-17a),[1],Neither 3-oxoCA nor 3-oxoDCA inhibited Th17 cell differentiation as robustly as 3-oxoLCA
same,Kd relative to 3-oxoLCA,[2],~20 times
"C[C@H](CCC(=O)O)[C@H]1CC[C@H]2[C@@H]3CC[C@@H]4CC(=O)CC[C@]4(C)[C@H]3C[C@H](O)[C@]12C [3-oxoDCA, 3-oxodeoxycholic acid, reference compound]",Th17 cell differentiation (IL-17a),[1],Neither 3-oxoCA nor 3-oxoDCA inhibited Th17 cell differentiation as robustly as 3-oxoLCA
same,Kd relative to 3-oxoLCA,[2],~20 times
"C[C@H](CCC(=O)O)[C@H]1CC[C@H]2[C@@H]3[C@H](O)C[C@@H]4C[C@H](O)CC[C@]4(C)[C@H]3CC[C@]12C [CDCA, Chenodeoxycholic acid]","Log D (pH = 8.0), previously reported",[3],2.2
"C[C@H](CCC(=O)O)[C@H]1CC[C@H]2[C@@H]3CC[C@@H]4C[C@H](O)CC[C@]4(C)[C@H]3C[C@H](O)[C@]12C [DCA, Deoxycholic acid]",logD at 18 h,[4],2.7
C[C@H](CCC(=O)NCC(=O)O)[C@H]1CC[C@H]2[C@@H]3CC[C@H]4C[C@@H](O)CC[C@]4(C)[C@H]3CC[C@]12C [Glyco-isoalloLCA],cytotoxicity compared to isoalloLCA,CD4+ T cells; 10 or 20 μM,enhanced cytotoxicity at 10 or 20 μM compared to isoalloLCA
"C[C@H](CCC(=O)O)[C@H]1CC[C@H]2[C@@H]3CC[C@@H]4C[C@H](O)CC[C@]4(C)[C@H]3CC[C@]12C [LCA, Lithocholic acid]",logD at 18 h,physchem,3.6
"COc1cc(O)c(C(CC(=O)N2C[C@H](C)C[C@H](C)C2)c2ccc3c(c2)OCO3)c(OC)c1 (stereo partly shown) [ML209, reference compound]",RORγt reporter activity,[5],completely lost RORγt activity
"CC[C@H]1[C@@H](O)[C@@H]2[C@H](CC[C@]3(C)[C@@H]([C@H](C)CCC(=O)O)CC[C@@H]23)[C@@]2(C)CC[C@@H](O)C[C@@H]12 [OCA, Obeticholic acid]",logD at 18 h,[4],2.5
"C[C@H](CCC(=O)O)[C@H]1CC[C@H]2[C@@H]3[C@@H](O)C[C@@H]4C[C@H](O)CC[C@]4(C)[C@H]3CC[C@]12C [UDCA, Ursodeoxycholic acid]","Log D (pH = 8.0), previously reported",[3],2.2
"C[C@H](CCC(=O)O)[C@H]1CC[C@H]2[C@@H]3CC[C@H]4C[C@H](O)CC[C@]4(C)[C@H]3CC[C@]12C [alloLCA, Allolithocholic acid]",Log D (pH = 8.0),,3.5
"CCNC(=O)C[C@@H]1N=C(c2ccc(Cl)cc2)c2cc(OC)ccc2-n2c(C)nnc21 [iBET, reference compound]",effect on isoalloLCA-dependent enhancement of FoxP3,"[6]; isoalloLCA 20 μM, TGF-β 0.05 ng/mL",prevented isoalloLCA-dependent enhancement of FoxP3 in a dose-dependent manner
"C[C@H](CCC(=O)O)[C@H]1CC[C@H]2[C@@H]3CC[C@@H]4C[C@@H](O)CC[C@]4(C)[C@H]3CC[C@]12C [isoLCA, Isolithocholic acid]",logD at 18 h,physchem,3.5
"C[C@H](CCC(=O)O)[C@H]1CC[C@H]2[C@@H]3CC[C@H]4C[C@@H](O)CC[C@]4(C)[C@H]3CC[C@]12C [isoalloLCA, Isoallolithocholic acid]",reduction of Th17 cell differentiation,[1]; 20 μM,~50%
same,cell viability,CD4+ T cells,"do not significantly affect cell proliferation, cell viability"
same,cell viability,CD4+ T cells; listed as IsoalloLCA,did not impair cell viability
same,logD at 18 h,physchem,2.2
"C[n+]1ccc(-c2cc[n+](CCCCCCCCCC[P+](c3ccccc3)(c3ccccc3)c3ccccc3)cc2)cc1.[I-].[I-].[I-] [mitoPQ, mitoParaquat, reference compound]",mitochondrial ROS (mitoROS) production,T cells,sufficient to enhance mitoROS production
same,FoxP3 expression / Treg differentiation in cells lacking CNS3,[6],required the CNS3 enhancer and TGF-β
same,Treg differentiation (FoxP3 expression),"[6]; bile acids 20 μM, 3 days, anti-CD3/28, IL-2",sufficient to enhance mitoROS production and Treg differentiation in a dose-dependent manner
TGF-β: cytokine used for Treg culture,FoxP3 expression / Treg differentiation in cells lacking CNS3,[6],"boosted Treg differentiation in CNS3-deficient cells, albeit with reduced efficiency"
